According to PMC3282105, “Antitumoral activity of allosteric inhibitors of protein kinase CK2” (2011):
pIC50: −log10 of the molar value.

Target: T1, CK2α (Homo sapiens, UniProt P68400)
T1 construct: gene CSNK2A1; human recombinant CK2α; rhCK2αΔC(1-335)
T1 sequence (P68400 1-335): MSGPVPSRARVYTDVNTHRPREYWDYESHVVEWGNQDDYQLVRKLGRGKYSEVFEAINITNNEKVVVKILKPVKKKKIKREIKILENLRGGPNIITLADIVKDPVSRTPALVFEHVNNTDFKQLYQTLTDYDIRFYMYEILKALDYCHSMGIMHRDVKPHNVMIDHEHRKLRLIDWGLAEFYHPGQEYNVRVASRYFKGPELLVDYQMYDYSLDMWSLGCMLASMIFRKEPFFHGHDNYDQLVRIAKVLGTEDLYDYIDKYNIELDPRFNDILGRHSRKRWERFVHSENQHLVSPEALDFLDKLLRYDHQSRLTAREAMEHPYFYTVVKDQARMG
Assay: radiometric kinase assay dose-response, Lineweaver-Burk kinetics, mutant panel
Type: biochemical

- pIC50: ~6.40
SMILES: O=[N+]([O-])c1ccc2c(N=Nc3ccc4ccccc4c3O)c(O)cc(S(=O)(=O)O)c2c1 [compound 4, Eriochrome Black T]
